Where two headings read alike, the source gives them in different places.
What was measured:
[1] = Stability testing, HPLC evaluation of stored samples; type: physicochemical; conditions: 25° C. and 60% relative humidity
Protocol: Samples of MB-102 were prepared and stored at 25° C. and 60% relative humidity for 24 months. HPLC evaluation of each sample was performed at various time points to assess the stability of the samples.

[2] = Clinical pharmacokinetic study of MB-102 given intravenously: plasma and urine collection; type: in vivo, human; conditions: for half-life: plasma
Protocol: In a clinical study, 60 human patients were administered MB-102 ((2R,2′R)-2,2′-((3,6-diaminopyrazine-2,5-dicarbonyl)bis(azanediyl))bis(3-hydroxypropanoic acid)) prepared in Example 12) intravenously. Blood and urine were collected in addition to the methods and techniques disclosed herein. Standard pharmacokinetic data was collected and comparison was made between the methods and techniques disclosed herein to Omnipaque® (iohexol), a known contrast agent used for GFR determination.
Shown in FIGS. 3A to 3D are data collected from the 60 human patients tested with MB-102. Plasma pharmacokinetic data was collected and analyzed using methods known in the art and compared to the data measured using the methods and techniques disclosed herein.
FIGS. 3A to 3D illustrate a two compartment pharmacokinetic model for the elimination of MB-102. The model is consistent for patients regardless of their GFR values. FIG. 3A is for patients having normal kidney function having a measured GFR (mGFR) of 120 mL/min. FIG. 3B is for patients having a mGFR of 81 mL/min. FIG. 3C is for patients having a mGFR of 28 mL/min. FIG. 3D is for patients having a mGFR of 25 mL/min. The first compartment in the two compartment model is the vascular to tissue equilibrium while the second compartment illustrates renal excretion only. On average, the time for equilibration is about one hour, and is subject dependent.
As part of the clinical 1 study for MB-102, urine was collected from patients for 12 hours to determine the amount recovered and degree of secondary metabolism. […] For patients having normal, stage 1 and stage 2 renal function, 12 hour collection time was sufficient for greater than 99% recovery of MB-102. In view of the pharmacokinetic data and the plasma half-life determination, less than complete collection is readily understood for patients having more serious renal function impairment.
Shown in FIG. 6 is the plasma concentration half-life of MB-102 for patients having either normal kidney function, stage 1 renal impairment, stage 2 renal impairment, stage 3 renal impairment, or stage 4 renal impairment.

[3] = patients having a mGFR value below 60, 12 hours

Purity (HPLC) ([1]; 0 months): >99% | Purity (HPLC) ([1]; 6 months): >99% | Purity (HPLC) ([1]; 12 months): 98.9% | Purity (HPLC) ([1]; 18 months): 98.3% | Purity (HPLC) ([1]; 24 months): 97.8% | time for equilibration (vascular to tissue equilibrium) ([2]; human patients, intravenous, on average, subject dependent): about one | half-life ([2]; human, intravenous, stage 2 and 3 groups (so in the source), read-out: average plasma half-life (converted)): 150 min | half-life ([2]; human, intravenous, stage 3 renal impairment, read-out: plasma half-life (converted)): 240 min | half-life ([2]; human, intravenous, stage 4 renal impairment, read-out: plasma half-life (converted)): 480 min | dose excreted ([2]; human, urine, intravenous, patients having normal, stage 1 and stage 2 renal function, 12 hour collection time, read-out: recovery from urine): > 99% | average plasma half-life ([2]; normal renal function group): two | degree of secondary metabolism (urine) [2, 3]: unmetabolized | recovery from urine [2, 3]: a lower percentage was recovered | recovered unmetabolized from urine ([2]; patients having an eGFR greater than 60, after 12 hours): greater than 99%
SMILES: Nc1nc(C(=O)N[C@H](CO)C(=O)O)c(N)nc1C(=O)N[C@H](CO)C(=O)O [MB-102]

Source: patent US11590244B2, “Methods for renal function determination” (MediBeacon Inc., priority 2017, dated 2023)
